According to ChEMBL document CHEMBL3046009, “Synthesis of piperineamino acid ester conjugates and study of their cytotoxic activities against human cancer cell lines” (Med Chem Res, 2012):
Where a name gives a salt, the structure may show the parent alone.

Tests used:
Type in all cases: functional, cell-based
[1] = test system: COLO 205; assay: Cytotoxicity against Homo sapiens (human) COLO205 cells by SRB assay
[2] = test system: HEp-2; assay: Cytotoxicity against Homo sapiens (human) Hep2 cells by SRB assay
[3] = test system: DU-145; assay: Cytotoxicity against Homo sapiens (human) DU145 cells by SRB assay
[4] = test system: PC-3; assay: Cytotoxicity against Homo sapiens (human) PC3 cells by SRB assay
[5] = test system: IMR-32; assay: Cytotoxicity against Homo sapiens (human) IMR32 cells by SRB assay
[6] = test system: MCF7; assay: Cytotoxicity against Homo sapiens (human) MCF7 cells by SRB assay

Row | Compound | IC50 [1] [µM] | IC50 [2] [µM] | IC50 [3] [µM] | IC50 [4] [µM] | IC50 [5] [µM] | IC50 [6] [µM]
1 | COC(=O)[C@@H](NC(=O)/C=C/C=C/c1ccc2c(c1)OCO2)C(C)C | > 50 | > 50 | 44 | 49 | > 50 | 51
2 | COC(=O)[C@H](NC(=O)/C=C/C=C/c1ccc2c(c1)OCO2)C(C)C | 51 | > 50 | > 50 | > 50 | > 50 | > 50
3 | COC(=O)[C@H](CC(C)C)NC(=O)/C=C/C=C/c1ccc2c(c1)OCO2 | 55 | 43 | > 50 | > 50 | > 50 | 48
4 | CC[C@H](C)[C@H](NC(=O)/C=C/C=C/c1ccc2c(c1)OCO2)C(=O)OC | > 50 | > 50 | > 50 | > 50 | > 50 | 48
5 | COC(=O)[C@H](CO)NC(=O)/C=C/C=C/c1ccc2c(c1)OCO2 | 36 | > 50 | > 50 | > 50 | > 50 | > 50
6 | COC(=O)C[C@H](NC(=O)/C=C/C=C/c1ccc2c(c1)OCO2)C(=O)OC | > 50 | > 50 | 46 | > 50 | > 50 | > 50
7 | COC(=O)[C@H](Cc1cnc[nH]1)NC(=O)/C=C/C=C/c1ccc2c(c1)OCO2 | > 50 | > 50 | 21 | > 50 | > 50 | > 50
8 | COC(=O)CNC(=O)/C=C/C=C/c1ccc2c(c1)OCO2 | > 50 | > 50 | 49 | 33 | 50 | 44
9 | COC(=O)[C@H](C)NC(=O)/C=C/C=C/c1ccc2c(c1)OCO2 | > 50 | > 50 | 51 | > 50 | > 50 | > 50
10 | COc1cccc2c1C(=O)c1c(O)c3c(c(O)c1C2=O)C[C@@](O)(C(=O)CO)C[C@@H]3O[C@H]1C[C@H](N)[C@H](O)[C@H](C)O1 [DOXORUBICIN HYDROCHLORIDE] |  |  |  |  | 0.02 | 0.8
11 | O=c1[nH]cc(F)c(=O)[nH]1 [FLUOROURACIL] | 2.9 | 2 |  |  |  | 2.9
12 | CO[C@@]12[C@H](COC(N)=O)C3=C(C(=O)C(C)=C(N)C3=O)N1C[C@@H]1N[C@@H]12 [MITOMYCIN] |  |  | 1.8 | 1.4 |  | 
13 | O=C(/C=C/C=C/c1ccc2c(c1)OCO2)N1CCCCC1 [PIPERINE] | 46 | 70 | > 50 | > 50 | 89 | 99
